pIC50: −log10 of the molar value.
Experiments:
IKKε = IKKε (Homo sapiens (Human), UniProt Q14164); test: IKKε time-resolved fluorescence Lanthascreen kinase inhibition assay; type: biochemical; conditions: 20 μM ATP (apparent Km), 2 nM kinase, 1 hr; values are activity bands; read-out: Inhibition of IKKε IC50
Protocol: (§1) Compounds of the invention (synthesised as described below) were tested for activity against the IKKε and TBK-1 enzyme as follows:
(§2) Inhibitions studies were performed using a time-resolved fluorescence-based Lanthascreen™ assay. Phosphorylation of a fluorescein-labelled substrate peptide is measured using terbium-labeled phosphospecific antibodies. Terbium is excited at 340 nm and the FRET energy transfer to fluorescein is measured at 495 and 520 nm. The emission ratio between 520 and 495 is a measure of the level of phosphorylation of the substrate by the kinase.
(§3) Kinase inhibition assays (10 μL) were performed at 20° C. in 384-well plate format. Compound IC50 values were determined at the apparent Km for ATP (20 μM) based on a radiometric assay (Invitrogen) using 8 or 10 point curves in duplicate. The final reaction conditions contained 400 nM fluorescein-IkBα substrate ([…]), 20 μM ATP, 2 nM or 8 nM IKKε or TBK1 kinase respectively, and 3% DMSO in kinase assay buffer consisting of 50 mM HEPES (pH 7.5), 10 mM MgCl, 1 mM EGTA, 0.01% Brij-35.
(§4) Compound dilutions were prepared from 10 mM DMSO stocks by dilution into DMSO.
(§5) The kinase phosphorylation assay was initiated by the addition of the kinase and the reaction was allowed to proceed for 1 hr or 2.5 hr for IKKε and TBK-1 kinase respectively. […] The reaction was stopped by the addition of 10 mM EDTA, and phosphorylation was detected after a 1 hr incubation with 1.5 nM terbium-labelled antibody against phosphorylation at Serine 32 on the IkBα[…]peptide, both in TR-FRET dilution buffer (Invitrogen).
(§6) In the data presented for IKKε, <9 μM means having an activity in the range from 300 nM≦9 μM; and <300 nM means having an activity in the range 30 nM≦300 nM; and for the data presented for TBK-1, <3 μM means having an activity in the range 300 nM≦3 μM, and <300 nM means having an activity in the range 30 nM≦300 nM.

TBK-1 = TBK-1 (Homo sapiens (Human), UniProt Q9UHD2); test: biochemical; conditions: 20 μM ATP (apparent Km), 8 nM kinase, 2.5 hr; values are activity bands; read-out: Inhibition of TBK-1 IC50
Sequence of TBK-1 (Q9UHD2 whole entry): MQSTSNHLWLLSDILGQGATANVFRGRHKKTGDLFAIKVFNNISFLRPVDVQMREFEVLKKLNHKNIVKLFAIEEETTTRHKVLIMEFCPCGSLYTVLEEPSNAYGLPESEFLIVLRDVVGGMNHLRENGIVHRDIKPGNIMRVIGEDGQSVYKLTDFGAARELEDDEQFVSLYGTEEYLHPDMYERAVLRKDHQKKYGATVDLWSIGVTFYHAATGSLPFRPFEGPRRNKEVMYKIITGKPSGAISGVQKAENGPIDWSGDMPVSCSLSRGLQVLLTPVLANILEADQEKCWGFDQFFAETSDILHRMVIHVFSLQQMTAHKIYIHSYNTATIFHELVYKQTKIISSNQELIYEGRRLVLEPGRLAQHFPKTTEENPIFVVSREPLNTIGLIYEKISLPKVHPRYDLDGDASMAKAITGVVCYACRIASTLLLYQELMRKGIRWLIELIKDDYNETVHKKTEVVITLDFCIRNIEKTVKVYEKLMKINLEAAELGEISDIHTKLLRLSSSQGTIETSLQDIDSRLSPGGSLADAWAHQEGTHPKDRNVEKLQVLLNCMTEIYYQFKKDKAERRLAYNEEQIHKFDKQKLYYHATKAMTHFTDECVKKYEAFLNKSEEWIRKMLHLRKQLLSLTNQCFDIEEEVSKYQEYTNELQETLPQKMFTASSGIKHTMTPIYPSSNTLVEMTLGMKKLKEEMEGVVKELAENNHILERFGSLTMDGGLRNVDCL
Protocol: as §1, §2, §3, §4, §5, §6

Sequence of IKKε (Q14164 whole entry): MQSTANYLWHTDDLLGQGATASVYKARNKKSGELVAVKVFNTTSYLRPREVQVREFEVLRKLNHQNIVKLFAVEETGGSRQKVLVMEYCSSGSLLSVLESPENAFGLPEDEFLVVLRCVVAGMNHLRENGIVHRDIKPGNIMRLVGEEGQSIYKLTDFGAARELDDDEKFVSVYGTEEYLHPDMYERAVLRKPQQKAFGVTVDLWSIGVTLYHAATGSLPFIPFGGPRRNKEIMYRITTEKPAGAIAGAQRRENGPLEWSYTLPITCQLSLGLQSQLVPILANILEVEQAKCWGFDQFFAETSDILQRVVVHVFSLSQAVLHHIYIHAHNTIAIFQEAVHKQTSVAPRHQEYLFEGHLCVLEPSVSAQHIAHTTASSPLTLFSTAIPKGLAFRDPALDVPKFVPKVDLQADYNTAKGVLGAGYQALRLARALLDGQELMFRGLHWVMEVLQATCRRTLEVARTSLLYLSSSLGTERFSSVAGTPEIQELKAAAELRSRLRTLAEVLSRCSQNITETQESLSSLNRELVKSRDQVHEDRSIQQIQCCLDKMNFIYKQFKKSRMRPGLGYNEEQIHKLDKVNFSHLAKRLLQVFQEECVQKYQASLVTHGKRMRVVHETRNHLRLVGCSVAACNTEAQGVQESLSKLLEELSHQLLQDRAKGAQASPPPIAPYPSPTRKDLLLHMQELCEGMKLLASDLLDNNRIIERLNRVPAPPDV

Row | SMILES | pIC50 (IKKε) | pIC50 (TBK-1)
1 | N#Cc1cc(-c2ccnc(Nc3cccc(C(F)(F)F)c3)n2)ccc1N1CCCC1 [DMX-2] | 5.05 to 6.52 | 
2 | N#Cc1cc(-c2ccnc(Nc3cccc(F)c3)n2)ccc1N1CCCC1 [DMX-3] | 6.52 to 7.52 | 
3 | N#Cc1cc(-c2ccnc(Nc3ccc(F)cc3)n2)ccc1N1CCCC1 [DMX-4] | 6.52 to 7.52 | 
4 | COc1cccc(Nc2nccc(-c3ccc(N4CCCC4)c(C#N)c3)n2)c1 [DMX-5] | > 7.52 | 
5 | COc1ccc(Nc2nccc(-c3ccc(N4CCCC4)c(C#N)c3)n2)cc1 [DMX-6] | > 7.52 | 
6 | CC(=O)Nc1cccc(Nc2nccc(-c3ccc(N4CCCC4)c(C#N)c3)n2)c1 [DMX-7] | > 7.52 | > 7.52
7 | CS(=O)(=O)c1cccc(Nc2nccc(-c3ccc(N4CCCC4)c(C#N)c3)n2)c1 [DMX-10] | > 7.52 | > 7.52
8 | N#Cc1cc(-c2ccnc(Nc3ccccc3)n2)ccc1N1CCCC1 [DMX-11] | 5.05 to 6.52 | 
9 | N#Cc1cc(-c2ccnc(Nc3ccncc3)n2)ccc1N1CCCC1 [DMX-12] | 5.05 to 6.52 | 
10 | N#Cc1cc(-c2ccnc(Nc3ccccn3)n2)ccc1N1CCCC1 [DMX-13] | 5.05 to 6.52 | 
11 | CC(=O)Nc1ccc(Nc2nccc(-c3ccc(N4CCCC4)c(C#N)c3)n2)cn1 [DMX-15] | > 7.52 | > 7.52
12 | N#Cc1cc(-c2ccnc(Nc3ccc4c(c3)NC(=O)CC4)n2)ccc1N1CCCC1 [DMX-17] | > 7.52 | > 7.52
13 | N#Cc1cc(-c2ccnc(Nc3cccnc3)n2)ccc1N1CCCC1 [DMX-18] | > 7.52 | 
14 | CN1CCN(c2ccc(Nc3nccc(-c4ccc(N5CCCC5)c(C#N)c4)n3)cn2)CC1 [DMX-19] | > 7.52 | > 7.52
15 | CN(C)c1ccc(Nc2nccc(-c3ccc(N4CCCC4)c(C#N)c3)n2)cn1 [DMX-20] | > 7.52 | > 7.52
16 | Cc1cc(C(N)=O)ccc1Nc1nccc(-c2ccc(N3CCCC3)c(C#N)c2)n1 [DMX-21] | 6.52 to 7.52 | 6.52 to 7.52
17 | N#Cc1cc(-c2ccnc(Nc3cccc(NC(=O)N4CCCC4)c3)n2)ccc1N1CCCC1 [DMX-22, Pyrrolidine-1-carboxylic acid {3-[4-(3-cyano-4-pyrrolidin-1-yl-phenyl)-pyrimidin-2-ylamino]-phenyl}-amide] | > 7.52 | > 7.52
18 | Cc1cc(Nc2nccc(-c3ccc(N4CCCC4)c(C#N)c3)n2)no1 [DMX-25] | 5.05 to 6.52 | 
19 | Cc1cc(Nc2nccc(-c3ccc(N4CCCC4)c(C#N)c3)n2)on1 [DMX-26] | 6.52 to 7.52 | 6.52 to 7.52
20 | Cn1nccc1Nc1nccc(-c2ccc(N3CCCC3)c(C#N)c2)n1 [DMX-27] | 6.52 to 7.52 | > 7.52
21 | Cn1ccc(Nc2nccc(-c3ccc(N4CCCC4)c(C#N)c3)n2)n1 [DMX-29] | 6.52 to 7.52 | 6.52 to 7.52

Row | SMILES | pIC50 (IKKε) | pIC50 (TBK-1)
22 | Cc1cnc(Nc2nccc(-c3ccc(N4CCCC4)c(C#N)c3)n2)s1 [DMX-30] | 5.05 to 6.52 | 
23 | Cc1csc(Nc2nccc(-c3ccc(N4CCCC4)c(C#N)c3)n2)n1 [DMX-32] | 5.05 to 6.52 | 
24 | CN(C)CCNc1ccc(Nc2nccc(-c3ccc(N4CCCC4)c(C#N)c3)n2)cn1 [DMX-33] | > 7.52 | > 7.52
25 | CN(C)CCN(C)c1ccc(Nc2nccc(-c3ccc(N4CCCC4)c(C#N)c3)n2)cn1 [DMX-34] | > 7.52 | > 7.52
26 | CC(=O)N(C)c1ccc(Nc2nccc(-c3ccc(N4CCCC4)c(C#N)c3)n2)cc1 [DMX-37] | > 7.52 | > 7.52
27 | N#Cc1cc(-c2ccnc(Nc3ncc(C(N)=O)o3)n2)ccc1N1CCCC1 [DMX-38] | 5.05 to 6.52 | 
28 | N#Cc1cc(-c2ccnc(Nc3nc(C(N)=O)co3)n2)ccc1N1CCCC1 [DMX-39] | 5.05 to 6.52 | 
29 | Cn1nc(Nc2nccc(-c3ccc(N4CCCC4)c(C#N)c3)n2)cc1C(N)=O [DMX-40] | 6.52 to 7.52 | 
30 | Cn1nc(C(N)=O)cc1Nc1nccc(-c2ccc(N3CCCC3)c(C#N)c2)n1 [DMX-41] | 6.52 to 7.52 | 
31 | N#Cc1cc(-c2ccnc(Nc3cccc(C(=O)O)c3)n2)ccc1N1CCCC1 [DMX-42] | > 7.52 | 
32 | CN1CCN(C(=O)c2cccc(Nc3nccc(-c4ccc(N5CCCC5)c(C#N)c4)n3)c2)CC1 [DMX-43] | > 7.52 | 
33 | CN1CCC(NC(=O)c2cccc(Nc3nccc(-c4ccc(N5CCCC5)c(C#N)c4)n3)c2)CC1 [DMX-44] | > 7.52 | 
34 | CN(C)CCNC(=O)c1cccc(Nc2nccc(-c3ccc(N4CCCC4)c(C#N)c3)n2)c1 [DMX-45] | > 7.52 | 
35 | CC(=O)Nc1ccc(Nc2nccc(-c3ccc(N4CCOCC4)c(C#N)c3)n2)cn1 [DMX-46] | 6.52 to 7.52 | > 7.52
36 | CC(=O)Nc1ccc(Nc2nccc(-c3ccc(N4CCN(C)CC4)c(C#N)c3)n2)cn1 [DMX-47] | 6.52 to 7.52 | 6.52 to 7.52
37 | CC(=O)Nc1ccc(Nc2nccc(-c3ccc(N4CC[C@H](O)C4)c(C#N)c3)n2)cn1 [DMX-48] | > 7.52 | > 7.52
38 | CN(C)CC(=O)Nc1ccc(Nc2nccc(-c3ccc(N4CCCC4)c(C#N)c3)n2)cn1 [DMX-49] | > 7.52 | > 7.52
39 | CC(=O)Nc1ccc(Nc2nccc(-c3ccc(N4CCC(C(N)=O)CC4)c(C#N)c3)n2)cn1 [DMX-50, 1-{4-[2-(6-Acetylamino-pyridin-3-ylamino)-pyrimidin-4-yl]-2-cyano-phenyl}-piperidine-4-carboxylic acid amide] | > 7.52 | 6.52 to 7.52
40 | CC(=O)Nc1ccc(Nc2nccc(-c3ccc(N4CCC[C@@H]4C(N)=O)c(C#N)c3)n2)cn1 [DMX-51] | 6.52 to 7.52 | 6.52 to 7.52
41 | Cn1nccc1Nc1nccc(-c2ccc(N3CC[C@H](O)C3)c(C#N)c2)n1 [DMX-52] | 6.52 to 7.52 | 6.52 to 7.52
42 | Cn1nccc1Nc1nccc(-c2ccc(N3CCC[C@@H]3C(N)=O)c(C#N)c2)n1 [DMX-53] | 6.52 to 7.52 | 5.52 to 6.52

Row | SMILES | pIC50 (IKKε) | pIC50 (TBK-1)
43 | CN1CCN(c2ccc(Nc3nccc(-c4ccc(N5CC[C@H](O)C5)c(C#N)c4)n3)cn2)CC1 [DMX-54] | > 7.52 | > 7.52
44 | CN1CCN(c2ccc(Nc3nccc(-c4ccc(N5CCC[C@@H]5C(N)=O)c(C#N)c4)n3)cn2)CC1 [DMX-55] | > 7.52 | > 7.52
45 | Cn1cnc(Nc2nccc(-c3ccc(N4CCCC4)c(C#N)c3)n2)c1 [DMX-57] | 6.52 to 7.52 | 6.52 to 7.52
46 | COc1ccc(Nc2nccc(-c3ccc(N4CCCC4)c(C#N)c3)n2)cn1 [DMX-58] | > 7.52 | > 7.52
47 | N#Cc1cc(-c2ccnc(Nc3ccn(CC(N)=O)n3)n2)ccc1N1CCCC1 [DMX-59] | 6.52 to 7.52 | 6.52 to 7.52
48 | Cn1cncc1Nc1nccc(-c2ccc(N3CCCC3)c(C#N)c2)n1 [DMX-60] | 6.52 to 7.52 | 6.52 to 7.52
49 | CN(C)CCOc1ccc(Nc2nccc(-c3ccc(N4CCCC4)c(C#N)c3)n2)cn1 [DMX-61] | > 7.52 | > 7.52
50 | CN(C)CCNc1ccc(Nc2nccc(-c3ccc(N4CC[C@H](O)C4)c(C#N)c3)n2)cn1 [DMX-62] | > 7.52 | > 7.52
51 | C[C@H]1CCCN1c1ccc(-c2ccnc(Nc3ccc(NCCN(C)C)nc3)n2)cc1C#N [DMX-63] | > 7.52 | > 7.52
52 | CN(C)CCNc1ccc(Nc2nccc(-c3ccc(N4CCC(C(N)=O)CC4)c(C#N)c3)n2)cn1 [DMX-64] | > 7.52 | 6.52 to 7.52
53 | CN(C)CCNc1ccc(Nc2nccc(-c3ccc(N4CCC(O)CC4)c(C#N)c3)n2)cn1 [DMX-65] | 6.52 to 7.52 | 6.52 to 7.52
54 | CNC(=O)[C@H]1CCCN1c1ccc(-c2ccnc(Nc3ccc(NC(C)=O)nc3)n2)cc1C#N [DMX-67] | 5.05 to 6.52 | > 5.05
55 | CNC(=O)C1CCN(c2ccc(-c3ccnc(Nc4ccc(NC(C)=O)nc4)n3)cc2C#N)CC1 [DMX-68] | 6.52 to 7.52 | 6.52 to 7.52
56 | CC(=O)Nc1ccc(Nc2nccc(-c3ccc(N4CCC[C@H]4C(N)=O)c(C#N)c3)n2)cn1 [DMX-70] | 6.52 to 7.52 | 6.52 to 7.52
57 | COC[C@H]1CCCN1c1ccc(-c2ccnc(Nc3ccc(NC(C)=O)nc3)n2)cc1C#N [DMX-71] | > 7.52 | > 7.52
58 | CN(C)CCNc1ccc(Nc2nccc(-c3ccc(N4CCC[C@@H]4C(N)=O)c(C#N)c3)n2)cn1 [DMX-72] | 6.52 to 7.52 | 6.52 to 7.52
59 | CC(=O)Nc1ccc(Nc2nccc(-c3ccc(N4CC[C@@H](O)C4)c(C#N)c3)n2)cn1 [DMX-73] | > 7.52 | > 7.52
60 | Cn1cc(Nc2nccc(-c3ccc(N4CC[C@H](O)C4)c(C#N)c3)n2)cn1 [DMX-74] | > 7.52 | > 7.52
61 | Cn1cc(Nc2nccc(-c3ccc(N4CCC(C(N)=O)CC4)c(C#N)c3)n2)cn1 [DMX-75] | > 7.52 | 6.52 to 7.52
62 | CO[C@H]1CCN(c2ccc(-c3ccnc(Nc4ccc(NC(C)=O)nc4)n3)cc2C#N)C1 [DMX-76] | > 7.52 | > 7.52
63 | CN1CCC(Nc2ccc(Nc3nccc(-c4ccc(N5CC[C@@H](F)C5)c(C#N)c4)n3)cn2)CC1 [DMX-77] | > 7.52 | > 7.52
